Assay results from patent publication US11524968B2, “Heterocyclic compound as a protein kinase inhibitor” (HK inno.N Corporation, priority 2017, dated 2022).

Target: JAK1 (Homo sapiens (Human), UniProt P23458)
Assay: Analysis of JAK1 activity inhibition ability (ADP-Glo Kinase Assay)
Format: biochemical
Settings: JAK1 enzyme, ADP-Glo luminescence, ATP 250 uM, IRS-itide substrate, 30° C. 40 minutes; read-out: IC50
Experimental: Test Example 1: Analysis of JAK1 Activity Inhibition Ability of Compound of Formula 1 (ADP-Glo™ Kinase Assay)
A JAK inhibition ability of a compound according to the present invention was identified as follows.
A control material and a test material were prepared for each concentration, in such a way that they were diluted by means of DMSO. At the same time, ATP (250 uM) and JAK substrate (JAK1, IRS-itide 40 ng/mL) were prepared, in such a way that they were diluted by means of kinase buffer (40 mM Tris-HCl pH 7.5, 20 mM MgCl2, 0.5 mg/mL BSA, 50 uM DTT).
A test drug for each concentration, substrate, ATP and JAK enzyme were mixed in an eppendorf tube, and reacted in a 30° C. incubator for 40 minutes.
ADP-Glo™ reagent contained in ADP-Glo™ Kinase Enzyme System (Promega, USA, V9571) was added into each eppendorf tube, and reacted in a 30° C. incubator for 40 minutes. A kinase detection reagent contained in ADP-Go™ Kinase Enzyme System was inserted into the eppendorf tube, then an integration time was set to 1 second by using Wallac Victor 2™, then luminescence was measured, and then JAKs phosphorylation inhibition ability of the test material was analyzed. The concentration of the compound, which causes 50% of the JAK enzyme activity inhibition in comparison With the control group, was determined as IC50 (nM) of an inhibitor, wherein the results thereof are shown in a following table 1.

Sequence of JAK1 (P23458 whole entry): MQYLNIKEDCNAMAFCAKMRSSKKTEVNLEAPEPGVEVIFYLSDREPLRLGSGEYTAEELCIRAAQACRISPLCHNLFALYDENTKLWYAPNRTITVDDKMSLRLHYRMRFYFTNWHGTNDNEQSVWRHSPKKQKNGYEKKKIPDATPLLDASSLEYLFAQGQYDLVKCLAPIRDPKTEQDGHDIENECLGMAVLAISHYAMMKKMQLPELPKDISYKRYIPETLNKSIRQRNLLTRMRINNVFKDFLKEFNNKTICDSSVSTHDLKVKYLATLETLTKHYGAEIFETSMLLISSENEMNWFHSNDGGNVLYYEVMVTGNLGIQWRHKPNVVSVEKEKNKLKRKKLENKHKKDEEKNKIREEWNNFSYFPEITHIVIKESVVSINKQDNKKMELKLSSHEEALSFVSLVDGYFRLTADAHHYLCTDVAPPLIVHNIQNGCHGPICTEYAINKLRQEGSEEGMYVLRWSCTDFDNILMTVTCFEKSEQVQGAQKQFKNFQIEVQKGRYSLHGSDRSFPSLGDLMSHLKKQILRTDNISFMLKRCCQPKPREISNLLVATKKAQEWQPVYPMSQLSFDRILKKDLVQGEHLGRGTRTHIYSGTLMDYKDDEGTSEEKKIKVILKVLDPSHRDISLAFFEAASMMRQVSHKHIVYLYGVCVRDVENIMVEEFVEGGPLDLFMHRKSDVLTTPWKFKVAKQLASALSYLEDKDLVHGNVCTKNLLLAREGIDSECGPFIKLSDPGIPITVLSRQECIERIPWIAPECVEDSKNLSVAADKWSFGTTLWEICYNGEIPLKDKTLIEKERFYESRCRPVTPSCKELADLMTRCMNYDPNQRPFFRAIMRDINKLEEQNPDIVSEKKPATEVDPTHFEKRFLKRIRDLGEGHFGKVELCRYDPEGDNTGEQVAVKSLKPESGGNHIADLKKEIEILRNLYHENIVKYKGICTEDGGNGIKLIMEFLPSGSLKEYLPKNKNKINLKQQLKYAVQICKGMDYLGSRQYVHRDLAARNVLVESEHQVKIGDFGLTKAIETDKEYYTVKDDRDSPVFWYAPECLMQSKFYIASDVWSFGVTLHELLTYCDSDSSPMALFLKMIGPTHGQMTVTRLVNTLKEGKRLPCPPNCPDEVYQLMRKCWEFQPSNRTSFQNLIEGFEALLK

CC1CC1C(=O)Nc1cc(-c2ccc(CN3CCS(=O)(=O)CC3)cc2)c2cc[nH]c2n1 (stereo not drawn) [Example 588, N-(4-(4-((1,1-dioxidothiomorpholino)methyl)phenyl)-1H-pyrrolo[2,3-b]pyridin-6-yl)-2-methylcyclopropane-1-carboxamide]
IC50: < 20 nM

CCCn1ccc2c(-c3ccc(NS(=O)(=O)CC)c(F)c3)cc(NC(=O)C3CC3)nc21 [Example 61, N-(4-(4-(ethylsulfonamido)-3-fluorophenyl)-1-propyl-1H-pyrrolo[2,3-b]pyridin-6-yl)cyclopropanecarboxamide]
IC50: > 200 nM

N#CCC1(CS(=O)(=O)N2C3CCC2CN(c2cc(NC(=O)C4CC4)nc4[nH]ccc24)C3)CC1 [Example 665, N-(4-(8-(((1-(cyanomethyl)cyclopropyl)methyl)sulfonyl)-3,8-diazabicyclo[3.2.1]octan-3-yl)-1H-pyrrolo[2,3-b]pyridin-6-yl)cyclopropanecarboxamide]
IC50: 20 to 200 nM

O=C(Nc1cc(-c2ccc(NS(=O)(=O)c3ccc(Cl)nc3)cc2)c2cc[nH]c2n1)C1CC1 [Example 12, N-(4-(4-((6-chloropyridine)-3-sulfonamido)phenyl)-1H-pyrrolo[2,3-b]pyridin-6-yl)cyclopropanecarboxamide]
IC50: < 20 nM

CS(=O)(=O)N1CC(n2cc(-c3cc(NC(=O)C4CC4)nc4[nH]ccc34)cn2)C1 [Example 603, N-(4-(1-(1-(methylsulfonyl)azetidin-3-yl)-1H-pyrazol-4-yl)-1H-pyrrolo[2,3-b]pyridin-6-yl)cyclopropanecarboxamide]
IC50: 20 to 200 nM

O=C(Nc1cc(-c2ccc(NS(=O)(=O)c3ccc(F)cc3)cc2)c2cc[nH]c2n1)C1CC1 [Example 13, N-(4-(4-((4-fluorophenyl)sulfonamido)phenyl)-1H-pyrrolo[2,3-b]pyridin-6-yl)cyclopropanecarboxamide]
IC50: < 20 nM

Cc1cc(C(=O)NCC#N)ccc1-c1cc(NC(=O)C2CC2)nc2[nH]ccc12 [Example 526, N-(cyanomethyl)-4-(6-(cyclopropanecarboxamido)-1H-pyrrolo[2,3-b]pyridin-4-yl)-3-methylbenzamide]
IC50: 20 to 200 nM

CC1CN(C(=O)c2ccc(C(C)(C)C)[nH]c2=O)CC=C1c1cc(NC(=O)C2CC2)nc2[nH]ccc12 (stereo not drawn) [Example 321, N-(4-(1-(6-(tert-butyl)-2-oxo-1,2-dihydropyridine-3-carbonyl)-3-methyl-1,2,3,6-tetrahydropyridin-4-yl)-1H-pyrrolo[2,3-b]pyridin-6-yl)cyclopropanecarboxamide]
IC50: > 200 nM

N#CC1(CC(=O)N2CC=C(c3cc(NC(=O)C4CC4)nc4[nH]ccc34)CC2)CC1 [Example 268, N-(4-(1-(2-(1-cyanocyclopropyl)acetyl)-1,2,3,6-tetrahydropyridin-4-yl)-1H-pyrrolo[2,3-b]pyridin-6-yl)cyclopropanecarboxamide]
IC50: 20 to 200 nM

CCS(=O)(=O)NC1CC=C(c2cc(NC(=O)C3CC3)nc3[nH]ccc23)CC1 (stereo not drawn) [Example 151, N-(4-(4-(ethylsulfonamido)cyclohex-1-en-1-yl)-1H-pyrrolo[2,3-b]pyridin-6-yl)cyclopropanecarboxamide]
IC50: 20 to 200 nM

O=C(Nc1cc(N2CCN(S(=O)(=O)N3CCOCC3)CC2)c2cc[nH]c2n1)C1CC1 [Example 673, N-(4-(4-(morpholinosulfonyl)piperazin-1-yl)-1H-pyrrolo[2,3-b]pyridin-6-yl)cyclopropanecarboxamide]
IC50: > 200 nM

O=C(Nc1cc(C2=CCN(C(=O)c3cnsc3)CC2)c2cc[nH]c2n1)C1CC1 [Example 292, N-(4-(1-(isothiazole-4-carbonyl)-1,2,3,6-tetrahydropyridin-4-yl)-1H-pyrrolo[2,3-b]pyridin-6-yl)cyclopropanecarboxamide]
IC50: < 20 nM

N#CCC(=O)N1C2C=C(c3cc(NC(=O)C4CC4)nc4[nH]ccc34)CC1CCC2 (stereo not drawn) [Example 394, N-(4-(9-(2-cyanoacetyl)-9-azabicyclo[3.3.1]non-2-en-3-yl)-1H-pyrrolo[2,3-b]pyridin-6-yl)cyclopropanecarboxamide]
IC50: < 20 nM

N#CCCC(=O)N1C[C@@H]2C[C@H]1CN2c1cc(NC(=O)C2CC2)nc2[nH]ccc12 [Example 680, N-(4-((1S,4S)-5-(3-cyanopropanoyl)-2,5-diazabicyclo[2.2.1]heptan-2-yl)-1H-pyrrolo[2,3-b]pyridin-6-yl)cyclopropanecarboxamide]
IC50: > 200 nM

CC1CN(C(=O)c2ccc(-c3ccc(F)cc3)[nH]c2=O)CC=C1c1cc(NC(=O)C2CC2)nc2[nH]ccc12 (stereo not drawn) [Example 322, N-(4-(1-(6-(4-fluorophenyl)-2-oxo-1,2-dihydropyridine-3-carbonyl)-3-methyl-1,2,3,6-tetrahydropyridin-4-yl)-1H-pyrrolo[2,3-b]pyridin-6-yl)cyclopropanecarboxamide]
IC50: > 200 nM

O=C(Nc1cc(-c2ccc(NS(=O)(=O)c3ccccc3)cc2)c2cc[nH]c2n1)C1CC1 [Example 24, N-(4-(4-(phenylsulfonamido)phenyl)-1H-pyrrolo[2,3-b]pyridin-6-yl)cyclopropanecarboxamide]
IC50: < 20 nM

O=C(Nc1cc(-c2ccc(NC3CN(C(=O)c4cc(F)cc(F)c4)C3)cc2)c2cc[nH]c2n1)C1CC1 [Example 510, N-(4-(4-((1-(3,5-difluorobenzoyl)azetidin-3-yl)amino)phenyl)-1H-pyrrolo[2,3-b]pyridin-6-yl)cyclopropanecarboxamide]
IC50: > 200 nM

N#CCNC(=O)C1CC=C(c2cc(NC(=O)C3CC3)nc3[nH]ccc23)CC1 (stereo not drawn) [Example 530, N-(cyanomethyl)-4-(6-(cyclopropanecarboxamido)-1H-pyrrolo[2,3-b]pyridin-4-yl)cyclohex-3-ene-1-carboxamide]
IC50: 20 to 200 nM

C[C@@H]1CN(C(=O)CC#N)CC=C1c1cc(N)nc2[nH]ccc12 [Example 705, (S)-3-(4-(6-amino-1H-pyrrolo[2,3-b]pyridin-4-yl)-3-methyl-3,6-dihydropyridin-1 (2H)-yl)-3-oxopropanenitrile]
IC50: > 200 nM

CCS(=O)(=O)Nc1ccc(-c2cc(NC(=O)C3CC3)[n+]([O-])c3[nH]ccc23)cc1F [Example 97, 6-(cyclopropanecarboxamido)-4-(4-(ethylsulfonamido)-3-fluorophenyl)-1H-pyrrolo[2,3-b]pyridine 7-oxide]
IC50: 20 to 200 nM

O=C(Nc1cc(C2=CC3CCCC(C2)N3C(=O)c2ccncc2F)c2cc[nH]c2n1)C1CC1 (stereo not drawn) [Example 369, N-(4-(9-(3-fluoroisonicotinoyl)-9-azabicyclo[3.3.1]non-2-en-3-yl)-1H-pyrrolo[2,3-b]pyridin-6-yl)cyclopropanecarboxamide]
IC50: 20 to 200 nM

CCCS(=O)(=O)Nc1ccc(-c2cc(NC(=O)C3CC3)nc3[nH]ccc23)c(C#N)c1 [Example 145, N-(4-(2-cyano-4-(propylsulfonamido)phenyl)-1H-pyrrolo[2,3-b]pyridin-6-yl)cyclopropanecarboxamide]
IC50: 20 to 200 nM

CC(C)N(C)S(=O)(=O)Nc1ccc(-c2cc(NC(=O)C3CC3)nc3[nH]ccc23)cc1 [Example 222, N-(4-(4-((N-isopropyl-N-methylsulfamoyl)amino)phenyl)-1H-pyrrolo[2,3-b]pyridin-6-yl)cyclopropanecarboxamide]
IC50: 20 to 200 nM

C[C@H]1CC(Nc2ccc(-c3cc(NC(=O)C4CC4)nc4[nH]ccc34)cc2)CCN1C(=O)c1ccnc(F)c1 (stereo partly drawn) [Example 503, N-(4-(4-(((2S)-1-(2-fluoroisonicotinoyl)-2-methylpiperidin-4-yl)amino)phenyl)-1H-pyrrolo[2,3-b]pyridin-6-yl)cyclopropanecarboxamide]
IC50: > 200 nM
